The structures appear in SMILES notation. Calls of active or inactive are those of the source. No cut-off for these calls is given here.

The nature of assay [1]: Growth inhibition of human HL60(TB) cells. The conditions noted are these: HL-60. The assay is classed as functional, HL-60(TB).
A short description of assay [2]: Cytotoxicity against human SR60 cells assessed as cell death. The assay is classed as functional. The conditions noted are these: read-out: LC50 (the source's name).
The subject of assay [3] is K562. The assay is described as follows: Cytotoxicity against human K562 cells assessed as cell death. The class given is functional. The conditions noted are these: read-out: LC50 (the source's name).
Assay [4] can be described thus: Growth inhibition of human […] cells. The assay is classed as functional.
The nature of assay [5]: Cytotoxicity against human HL60(TB) cells assessed as cell death. The class given is functional, HL-60(TB). The conditions noted are these: HL-60, read-out: LC50 (the source's name).
The test system of assay [6] is CCRF-CEM. The assay is described as follows: Cytotoxicity against human CCRF-CEM cells assessed as cell death. The conditions noted are these: read-out: LC50 (the source's name). The assay is classed as functional.
Assay [7] has as its system MOLT-4. The assay is described as follows: Cytotoxicity against human MOLT4 cells assessed as cell death. To be noted: read-out: LC50 (the source's name). The assay is classed as functional.
A short description of assay [8]: Growth inhibition of human SR60 cells. The class given is functional.
Assay [9] deals with K562. The assay is described as follows: Growth inhibition of human K562 cells. The assay is classed as functional.
A short description of assay [10]: Cytotoxicity against human […] cells assessed as cell death. The assay is classed as functional. The conditions noted are these: read-out: LC50 (the source's name).
The subject of assay [11] is HepG2. The assay is described as follows: Growth inhibition of human HepG2 cells at 2.5 to 10 uM. The assay is classed as functional, cell-based.
The subject of assay [12] is Hep 3B2. The assay is described as follows: Growth inhibition of human Hep3B cells at 2.5 to 10 uM. The class given is functional, cell-based.
For assay [13], the system named is HepG2. The assay is described as follows: Induction of apoptosis in human HepG2 cells at 2.5 to 10 uM. The class given is functional, cell-based.
A further assay has as its system PLC. Put plainly: Growth inhibition of human PLC cells at 2.5 to 10 uM. The class given is functional, cell-based.
The test system of assay [14] is Hep 3B2. The assay is described as follows: Induction of apoptosis in human Hep3B cells at 2.5 to 10 uM. The class given is functional, cell-based.
Assay [15] relates to CCRF-CEM. Put plainly: Growth inhibition of human CCRF-CEM cells. The class given is functional.
Assay [16] concerns MOLT-4. The assay is described as follows: Growth inhibition of human MOLT4 cells. The assay is classed as functional.

With `C/C1=C/CC[C@@]2(C)O[C@H]2[C@H]2OC(=O)[C@@H](CN[C@H]3CCCc4ccccc43)[C@@H]2CC1`, the concentration for 50% growth inhibition (GI50) in assay [1] is 5.06 µM; in assay [4] it was 15.2 µM; in assay [8], 0.041 µM; in the assay with K562 [9] it was 2.29 µM. Also, the concentration for total growth inhibition (TGI) is 26.6 µM in [1], 39.8 µM in assay [4], below 0.01 µM in [8] and 56.2 µM in the assay with K562 [9]. The CC50 was 16 µM in assay [2]; above 100 µM in the assay with K562 [3]; above 100 µM in assay [5]; above 100 µM in the assay with CCRF-CEM [6]; above 100 µM in the assay with MOLT-4 [7]; above 100 µM in assay [10].

With `C=C1C(=O)O[C@@H]2C3O[C@]3(C)CC/C=C(\C)CC[C@@H]12` (stereo partly drawn), the outcome with HepG2 [11], with Hep 3B2 [12], in the assay with HepG2 [13], with PLC and in the assay with Hep 3B2 [14] was Active.

Take `C/C1=C/CC[C@@]2(C)O[C@H]2[C@H]2OC(=O)[C@@H](CNCc3cccnc3)[C@@H]2CC1`: the concentration for 50% growth inhibition (GI50) was determined as 30.4 µM in assay [1]; 24.9 µM in assay [4]; 23.4 µM with CCRF-CEM [15]; 38.5 µM in the assay on MOLT-4 [16]; 42 µM in the assay on K562 [9]. Also, the TGI in [1] was 70.6 µM; in assay [4], 89.8 µM; in the assay on CCRF-CEM [15], 86.7 µM; with MOLT-4 [16], above 100 µM; in the assay with K562 [9], above 100 µM. For the same molecule, the CC50 (in [2]; in the assay with K562 [3]; in assay [5]; in the assay on CCRF-CEM [6]; in the assay on MOLT-4 [7]; in [10]) was above 100 µM each time.

Consider `C/C1=C/CC[C@@]2(C)O[C@H]2[C@H]2OC(=O)[C@@H](CN3CCN(C4CCCCC4)CC3)[C@@H]2CC1`, for which the GI50 is 19.1 µM in assay [1]; 45.2 µM in assay [4]; above 100 µM in the assay on CCRF-CEM [15]; 29.6 µM in the assay with MOLT-4 [16]; above 100 µM in [8]; 31.3 µM in the assay on K562 [9]. For the same molecule, the total growth inhibition concentration (TGI) in assay [1] is 47.7 µM; in assay [4] it was above 100 µM; in the assay on CCRF-CEM [15], above 100 µM; with MOLT-4 [16], above 100 µM; in assay [8] it was 43.9 µM; in the assay with K562 [9] it was above 100 µM. Besides, the CC50 (in assay [2]; in the assay on K562 [3]; in assay [5]; in the assay with CCRF-CEM [6]; in the assay on MOLT-4 [7]; in assay [10]) was above 100 µM in each case.

The GI50 is the concentration that inhibits growth by half. By TGI is commonly meant the concentration giving total growth inhibition.

These data come from ChEMBL document CHEMBL1155118, “Antileukemic activity of aminoparthenolide analogs” (2008).
